These results are taken from patent EP0584797A2, “Novel cephalosporin compounds and processes for the preparation thereof” (LUCKY LTD., priority 1992, dated 1994).

Molecules are shown by their SMILES. Values after ≈ are worked out from the molar mass of the structure shown.

Holding throughout (assay): minimal inhibitory concentration, two-fold agar dilution
What all share (assay type): cell-based
Background: Agar dilution tests growth on a series of plates holding different concentrations.

Test [1] concerns Pseudomonas aeruginosa ATCC 25619. Conditions: ATCC25619, Muller-Hinton agar, 37°C, 20 hours, read-out: MIC values against the standard strains. The method, then: (§1) These MIC values were taken by employing a two-fold dilution method: that is, two-fold serial dilutions of each of the test compounds were made and dispersed in a Muller-Hinton agar medium; 2µl of the standard test strain which had the 10⁷ CFU(Colony Forming Unit) per ml was inoculated on the medium; and these were incubated at 37°C for 20 hours.

Test [2] relates to Serratia marcescens ATCC 27117. Conditions: ATCC27117, Muller-Hinton agar, 37°C, 20 hours, read-out: MIC values against the standard strains. The method, then:
as §1

In test [3] the test system is Citrobacter freundii ATCC 8090. Conditions: ATCC8090, Muller-Hinton agar, 37°C, 20 hours, read-out: MIC values against the standard strains. The method, then: as §1
Test [4] deals with Escherichia coli ATCC 10536. Conditions: ATCC10536, Muller-Hinton agar, 37°C, 20 hours, read-out: MIC values against the standard strains. Here is the method: as §1
The test system of test [5] is Pseudomonas aeruginosa ATCC 10145. Conditions: ATCC10145, Muller-Hinton agar, 37°C, 20 hours, read-out: MIC values against the standard strains. The method, then: as §1
The subject of test [6] is Proteus mirabilis ATCC 25933. Conditions: ATCC25933, Muller-Hinton agar, 37°C, 20 hours, read-out: MIC values against the standard strains. The method, then: as §1
Test [7] concerns Acinetobacter calcoaceticus ATCC 15473. Conditions: ATCC15473, Muller-Hinton agar, 37°C, 20 hours, read-out: MIC values against the standard strains. The method, then: as §1
Test [8] concerns Bacillus megaterium ATCC 9885. Conditions: Priestia megaterium, ATCC9885; Muller-Hinton agar; 37°C; 20 hours; read-out: MIC values against the standard strains. The method, then:
as §1

Test [9] relates to Staphylococcus aureus ATCC 6538p. Conditions: ATCC6538P, Muller-Hinton agar, 37°C, 20 hours, read-out: MIC values against the standard strains. Here is the method: as §1
The test system of test [10] is Salmonella typhimurium ATCC 14028. Conditions: Salmonella enterica; Muller-Hinton agar; 37°C; 20 hours; read-out: MIC values against the standard strains. Here is the method:
as §1

The test system of test [11] is Bacillus cereus ATCC 11778. Conditions: ATCC11778, Muller-Hinton agar, 37°C, 20 hours, read-out: MIC values against the standard strains. The method, then: as §1
Test [12] relates to Micrococcus luteus ATCC 9341. Conditions: ATCC9341, Muller-Hinton agar, 37°C, 20 hours, read-out: MIC values against the standard strains. Here is the method:
as §1

Test [13] deals with Providencia rettgeri ATCC 9250. Conditions: ATCC9250, Muller-Hinton agar, 37°C, 20 hours, read-out: MIC values against the standard strains. The method, then:
as §1

In test [14] the test system is Escherichia coli ATCC 25922. Conditions: ATCC25922, Muller-Hinton agar, 37°C, 20 hours, read-out: MIC values against the standard strains. The method, then:
as §1

The test system of test [15] is Shigella sonnei ATCC 11060. Conditions: ATCC11060, Muller-Hinton agar, 37°C, 20 hours, read-out: MIC values against the standard strains. Here is the method:
as §1

Test [16] deals with Shigella flexneri ATCC 11836. Conditions: ATCC11836, Muller-Hinton agar, 37°C, 20 hours, read-out: MIC values against the standard strains. The method, then:
as §1

Test [17] relates to Staphylococcus aureus ATCC 10537. Conditions: ATCC10537, Muller-Hinton agar, 37°C, 20 hours, read-out: MIC values against the standard strains. The method, then:
as §1

In test [18] the test system is Streptococcus faecalis ATCC 29212. Conditions: Enterococcus faecalis, ATCC29212; Muller-Hinton agar; 37°C; 20 hours; read-out: MIC values against the standard strains. The method, then:
as §1

In test [19] the test system is Pseudomonas aeruginosa ATCC 27853. Conditions: ATCC27853, Muller-Hinton agar, 37°C, 20 hours, read-out: MIC values against the standard strains. Here is the method:
as §1

Test [20] has as its system Proteus vulgaris ATCC 6059. Conditions: ATCC6059, Muller-Hinton agar, 37°C, 20 hours, read-out: MIC values against the standard strains. Here is the method:
as §1

Test [21] concerns Staphylococcus epidermidis ATCC 12228. Conditions: ATCC12228, Muller-Hinton agar, 37°C, 20 hours, read-out: MIC values against the standard strains. Here is the method: as §1
In test [22] the test system is Morganella morganii ATCC 8076h. Conditions: ATCC8076H, Muller-Hinton agar, 37°C, 20 hours, read-out: MIC values against the standard strains. Here is the method:
as §1

The test system of test [23] is Klebsiella pneumoniae ATCC 10031. Conditions: ATCC10031, Muller-Hinton agar, 37°C, 20 hours, read-out: MIC values against the standard strains. The method, then: as §1
In test [24] the test system is Enterobacter aerogenes ATCC 29751. Conditions: Klebsiella aerogenes, ATCC29751; Muller-Hinton agar; 37°C; 20 hours; read-out: MIC values against the standard strains. The method, then: as §1
For test [25], the system named is Enterobacter cloacae ATCC 27508. Conditions: ATCC27508, Muller-Hinton agar, 37°C, 20 hours, read-out: MIC values against the standard strains. Here is the method:
as §1

What is called MIC is the smallest concentration in the dilution series that meets the test's criterion for growth inhibition. On to `CC(C)(O/N=C(\C(=O)N[C@@H]1C(=O)N2C(C(=O)[O-])=C(C[n+]3ccccc3)CS[C@H]12)c1csc(N)n1)C(=O)O` [Ceftazidime, reference compound], for which the MIC amounted to 1 µg/mL (≈ 1.83 µM) in test [1]; 0.13 µg/mL (≈ 0.238 µM) in test [2]; 0.13 µg/mL (≈ 0.238 µM) in [3]; 0.13 µg/mL (≈ 0.238 µM) in test [4]; 2 µg/mL (≈ 3.66 µM) in test [5]; 0.063 µg/mL (≈ 0.115 µM) in test [6]. The minimum inhibitory concentration (MIC) in [7] was 2 µg/mL (≈ 3.66 µM); in [8], 0.25 µg/mL (≈ 0.457 µM); in test [9], 8 µg/mL (≈ 14.6 µM); in test [10], 0.25 µg/mL (≈ 0.457 µM); in [11], 128 µg/mL (≈ 234 µM); in [12], 0.5 µg/mL (≈ 0.915 µM). For the same compound, the MIC in test [13] was at most 0.008 µg/mL; in test [14], 0.13 µg/mL (≈ 0.238 µM); in [15], 0.13 µg/mL (≈ 0.238 µM); in test [16], 0.031 µg/mL (≈ 0.0567 µM); in [17], 4 µg/mL (≈ 7.32 µM); in test [18], above 128 µg/mL. Further, the MIC was 1 µg/mL (≈ 1.83 µM) in test [19]; 0.063 µg/mL (≈ 0.115 µM) in test [20]; 4 µg/mL (≈ 7.32 µM) in [21]; at most 0.008 µg/mL in test [22]; 0.13 µg/mL (≈ 0.238 µM) in test [23]; 8 µg/mL (≈ 14.6 µM) in test [24]. Besides, the minimum inhibitory concentration (MIC) in [25] amounted to 0.031 µg/mL (≈ 0.0567 µM).

Consider `C[C@@H](O/N=C(\C(=O)N[C@@H]1C(=O)N2C(C(=O)[O-])=C(CSc3nc(N)c(N)c(N)[n+]3C)CS[C@H]12)c1csc(N)n1)C(=O)O` [Example 82-b, 7-[(Z)-2-(2-aminothiazol-4-yl)-2-{1-carboxyeth-1-oxyimino}acetamido]-3-(4,5,6-triamino-1-methylpyrimidinium-2-yl)thiomethyl-3-cephem-4-carboxylate], for which the minimal inhibitory concentration (MIC) in test [1] came to 1 µg/mL (≈ 1.6 µM); in test [2] it was 0.063 µg/mL (≈ 0.101 µM); in test [3], 0.063 µg/mL (≈ 0.101 µM); in test [4] it was 0.031 µg/mL (≈ 0.0496 µM); in test [5] it was 2 µg/mL (≈ 3.2 µM); in test [6] it was 0.031 µg/mL (≈ 0.0496 µM). Moreover, the MIC in [7] is 8 µg/mL (≈ 12.8 µM); in test [8], 0.5 µg/mL (≈ 0.8 µM); in test [9], 8 µg/mL (≈ 12.8 µM); in [10], 0.063 µg/mL (≈ 0.101 µM); in [11] it was 128 µg/mL (≈ 205 µM); in [12] it was 0.5 µg/mL (≈ 0.8 µM). The minimal inhibitory concentration (MIC) in test [13] was at most 0.008 µg/mL; in test [14], 0.031 µg/mL (≈ 0.0496 µM); in test [16], 0.031 µg/mL (≈ 0.0496 µM); in test [17], 2 µg/mL (≈ 3.2 µM); in test [18], above 128 µg/mL; in test [19], 1 µg/mL (≈ 1.6 µM). Moreover, the MIC in [20] was 0.031 µg/mL (≈ 0.0496 µM); in test [21], 2 µg/mL (≈ 3.2 µM); in test [22], at most 0.008 µg/mL; in test [23] it was 0.031 µg/mL (≈ 0.0496 µM); in [24], 0.5 µg/mL (≈ 0.8 µM); in test [25], at most 0.008 µg/mL.

Regarding `CC[C@@H](O/N=C(\C(=O)N[C@@H]1C(=O)N2C(C(=O)[O-])=C(CSc3nc(N)cc[n+]3N)CS[C@H]12)c1csc(N)n1)C(=O)O` [Example 88-b, 7-[(Z)-2-(2-aminothiazol-4-yl)-2-{(R)-1-carboxyprop-1-oxyimino}acetamido]-3-(1,4-diaminopyrimidinium-2-yl)thiomethyl-3-cephem-4-carboxylate], the MIC in test [1] was 1 µg/mL (≈ 1.64 µM); in test [2], 0.25 µg/mL (≈ 0.41 µM); in [3] it was 0.063 µg/mL (≈ 0.103 µM); in [4], 0.063 µg/mL (≈ 0.103 µM); in test [5] it was 2 µg/mL (≈ 3.28 µM); in [7], 8 µg/mL (≈ 13.1 µM). The MIC is 1 µg/mL (≈ 1.64 µM) in test [8]; 4 µg/mL (≈ 6.56 µM) in test [9]; 0.25 µg/mL (≈ 0.41 µM) in test [10]; 128 µg/mL (≈ 210 µM) in [11]; 1 µg/mL (≈ 1.64 µM) in test [12]; at most 0.008 µg/mL in [13]. The minimal inhibitory concentration (MIC) was 0.031 µg/mL (≈ 0.0508 µM) in test [14]; 0.063 µg/mL (≈ 0.103 µM) in [15]; 0.031 µg/mL (≈ 0.0508 µM) in test [16]; 4 µg/mL (≈ 6.56 µM) in test [17]; above 128 µg/mL in test [18]; 2 µg/mL (≈ 3.28 µM) in [19]. Moreover, the MIC is 2 µg/mL (≈ 3.28 µM) in test [21]; at most 0.008 µg/mL in test [22]; 0.031 µg/mL (≈ 0.0508 µM) in test [23]; 1 µg/mL (≈ 1.64 µM) in test [24]; 0.016 µg/mL (≈ 0.0262 µM) in [25].
